CC(=O)N[C@@H](CCC(N)=O)C(=O)O
solubility (mole fraction)
Conditions | 283.15 K | 288.15 K | 293.15 K | 298.15 K | 303.15 K | 308.15 K | 313.15 K | 318.15 K | 323.15 K
in 2-butanone | 0.000381 | 0.000395 | 0.000425 | 0.000451 | 0.000479 | 0.000516 | 0.000564 | 0.000606 | 0.000658
in acetone | 0.00016 | 0.000192 | 0.000232 | 0.000275 | 0.000312 | 0.000342 | 0.000389 | 0.000422 | 0.000475
in acetonitrile | 0.000116 | 0.000128 | 0.000139 | 0.000152 | 0.000165 | 0.000179 | 0.000194 | 0.000205 | 0.000217
in ethanol | 0.000347 | 0.000389 | 0.000461 | 0.000543 | 0.000618 | 0.000685 | 0.000768 | 0.000845 | 0.000935
in ethyl acetate | 0.000101 | 0.000136 | 0.000186 | 0.000222 | 0.000271 | 0.000323 | 0.000362 | 0.000402 | 0.000431
in isobutanol | 0.000288 | 0.000309 | 0.000354 | 0.000415 | 0.000464 | 0.000527 | 0.000587 | 0.000635 | 0.000707
in methanol | 0.000974 | 0.00112 | 0.00132 | 0.00149 | 0.00176 | 0.00206 | 0.00243 | 0.00281 | 0.00318
in methyl acetate | 0.000141 | 0.000167 | 0.000201 | 0.000245 | 0.000277 | 0.000315 | 0.000351 | 0.000401 | 0.000445
in n-butanol | 8.9e-05 | 0.000102 | 0.000144 | 0.000193 | 0.000246 | 0.000314 | 0.000372 | 0.000439 | 0.000516
in n-propanol | 0.000371 | 0.000405 | 0.000434 | 0.000471 | 0.000498 | 0.00053 | 0.000564 | 0.000594 | 0.000637
in sec-butanol | 0.000347 | 0.000395 | 0.000452 | 0.000501 | 0.000554 | 0.000605 | 0.000661 | 0.000705 | 0.000757
in water | 0.00214 | 0.00233 | 0.00265 | 0.00297 | 0.00358 | 0.0043 | 0.00492 | 0.00587 | 0.00767

From BigSolDB 2.1
